In the NIST ThermoML archive (doi:10.1016/j.jct.2015.07.042):

Conditions: 100 kPa, Vibrating tube method

CCCCn1cc[n+](C)c1.[Cl-] [1-butyl-3-methylimidazolium chloride]
Conditions	mass density [kg/m3]
308.15 K, Metastable liquid	1079.4
313.15 K, Metastable liquid	1076.6
318.15 K, Metastable liquid	1073.7
323.15 K, Metastable liquid	1070.9
328.15 K, Metastable liquid	1068.1
333.15 K, Metastable liquid	1065.2
338.15 K, Metastable liquid	1062.4
343.15 K, Liquid	1059.6
348.15 K, Liquid	1056.9
353.15 K, Liquid	1054.3
358.15 K, Liquid	1051.7
363.15 K, Liquid	1049
368.15 K, Liquid	1046.4
373.15 K, Liquid	1043.9
